pIC50: −log10 of the molar value. Structures can show the parent of a compound that is named as a salt.
Biological target: T1, human FPTase (Homo sapiens, UniProt P49354+P49356)
T1 construct: made in house
Test: In vitro inhibition of ras farnesyl transferase (human FPTase assay)
Type: biochemical
Conditions: [3H]-FPP incorporation, 100 nM Ras-CVIM substrate, 30 min; read-out: IC50, inhibitory activity against human FPTase

Row | SMILES | pIC50
1 | N#Cc1ccc(Cn2cncc2COC(=O)Nc2cccc(Cl)c2)cc1 [Example 1, N-(3-chlorophenyl)-O-[1-(4-cyanobenzyl)-5-imidazolylmethyl]-carbamate hydrochloride] | > 4.52
2 | CCCCCN(C(=O)OCc1cncn1Cc1ccc(C#N)cc1)c1cccc(Cl)c1 [Example 2, N-(3-chlorophenyl)-N-(n-pentyl)-O-[1-(4-cyanobenzyl)-5-imidazolylmethyl]carbamate hydrochloride] | > 4.52

Source: US5914341A, “Inhibitors of farnesyl-protein transferase” (Merck & Co., Inc., priority 1998, dated 1999)
